For one experiment, the target named is T1, human β2-adrenoceptor (Homo sapiens, UniProt P07550).
T1 construct: expressed in transfected cells
Kind of experiment: Whole-cell cAMP Flashplate assay, recombinant cell line (Test B). The following applies: for EC50: HEK-293 cells expressing cloned human β2-adrenoceptor, cAMP; for Selectivity β2/β1 (functional): ratio EC50(β1)/EC50(β2); for Selectivity β2/β3 (functional): ratio EC50(β3)/EC50(β2). It counts as cell-based. Here is the method: A HEK-293 cell line stably expressing cloned human β1 adrenergic receptor (clone H34.1) was grown to about 70%-90% confluency in medium consisting of DMEM supplemented with 10% FBS and 500 μg/mL Geneticin. A HEK-293 cell line stably expressing cloned human β2-adrenoceptor (clone H24.14) was grown in the same medium to full confluency. A CHO-K1 cell line stably expressing cloned human β3-adrenoceptor was grown to about 70%-90% confluency in Ham's F-12 medium supplemented with 10% FBS and with 800 μg/mL Geneticin added to every fifth passage. The day before the assay, cultures were switched to the same growth-media without antibiotics.
cAMP assays were performed in a radioimmunoassay format using the Flashplate Adenylyl Cyclase Activation Assay System with ^125I-cAMP (NEN SMP004, PerkinElmer Life Sciences Inc., Boston, Mass.), according to the manufacturers instructions.
On the day of the assay, cells were rinsed once with PBS, lifted with Versene 1:5,000 (0.2 g/L EDTA in PBS) and counted. Cells were pelleted by centrifugation at 1,000 rpm and resuspended in stimulation buffer prewarmed to 37° C. For cells expressing the β1-adrenoceptor, 10 nM ICI 118,551 were added to the stimulation buffer, and cells were incubated for 10 min at 37° C. Cells were used at final concentrations of 30,000, 40,000 and 70,000 cells/well for the β1-adrenoceptor-, the β2-adrenoceptor- and the β3-adrenoceptor expressing cells, respectively. Compounds were dissolved to a concentration of 10 mM in DMSO, then diluted to 1 mM in 50 mM Gly-HCl pH 3.0, and from there serially diluted into assay buffer (75 mM Tris/HCl pH 7.4 @ 25° C., 12.5 mM MgCl2, 1 mM EDTA, 0.2% BSA). Compounds were tested in the assay at 11 different concentrations, ranging from 10 μM to […]. Reactions were incubated for 10 min at 37° C. and stopped by addition of 100 μL ice-cold detection buffer. Plates were sealed, incubated over night at 4° C. and counted the next morning in a topcount scintillation counter (Packard BioScience Co., Meriden, Conn.). The amount of cAMP produced per mL of reaction was calculated based on the counts observed for the samples and cAMP standards, as described in the manufacturer's user manual. Data were analyzed by nonlinear regression analysis with the GraphPad Prism Software package (GraphPad Software, Inc., San Diego, Calif.) using the 3-parameter model for sigmoidal dose-response (Hill slope=1). Agonist potencies were expressed as pEC50 values. Functional β2/β1 selectivity was defined as the ratio EC50(β1)/EC50(β2), and correspondingly functional β2/β3 selectivity was defined as the ratio EC50(β3)/EC50(β2).

The subject of experiment [1] is acetylcholine-induced bronchospasm. Kind of experiment: Bronchoprotection against acetylcholine-induced bronchospasm in a guinea pig model (Test D). The following applies: inhalation. It counts as in vivo. On the procedure: Groups of 6 male guinea pigs (Duncan-Hartley (HsdPoc:DH) Harlan, Madison, Wis.) weighing between 250 and 350 g were individually identified by cage cards. Throughout the study animals were allowed access to food and water ad libitum.
Test compounds were administered via inhalation over 10 minutes in a whole-body exposure dosing chamber (R&S Molds, San Carlos, Calif.). The dosing chambers were arranged so that an aerosol was simultaneously delivered to 6 individual chambers from a central manifold. Following a 60 minute acclimation period and a 10 minute exposure to nebulized water for injection (WFI), guinea pigs were exposed to an aerosol of test compound or vehicle (WFI). These aerosols were generated from aqueous solutions using an LC Star Nebulizer Set (Model 22F51, PARI Respiratory Equipment, Inc. Midlothian, Va.) driven by a mixture of gases (CO2=5%, O2=21% and N2=74%) at a pressure of 22 psi. The gas flow through the nebulizer at this operating pressure was approximately 3 L/minute. The generated aerosols were driven into the chambers by positive pressure. No dilution air was used during the delivery of aerosolized solutions. During the 10 minute nebulization, approximately 1.8 mL of solution was nebulized. This was measured gravimetrically by comparing pre- and post-nebulization weights of the filled nebulizer.
The bronchoprotective effects of compounds administered via inhalation were evaluated using whole body plethysmography at 1.5, 24, 48 and 72 hours post-dose. Forty-five minutes prior to the start of the pulmonary evaluation, each guinea pig was anesthetized with an intramuscular injection of ketamine (43.75 mg/kg), xylazine (3.50 mg/kg) and acepromazine (1.05 mg/kg). After the surgical site was shaved and cleaned with 70% alcohol, a 2-5 cm midline incision of the ventral aspect of the neck was made. Then, the jugular vein was isolated and cannulated with a saline-filled polyethylene catheter (PE-50, Becton Dickinson, Sparks, Md.) to allow for intravenous infusions of a 0.1 mg/mL solution of acetylcholine (Ach), (Sigma-Aldrich, St. Louis, Mo.) in saline. The trachea was then dissected free and cannulated with a 14G teflon tube (#NE-014, Small Parts, Miami Lakes, Fla.). If required, anesthesia was maintained by additional intramuscular injections of the aforementioned anesthetic cocktail. The depth of anesthesia was monitored and adjusted if the animal responded to pinching of its paw or if the respiration rate was greater than 100 breaths/minute.
Once the cannulations were complete, the animal was placed into a plethysmograph (#PLY3114, Buxco Electronics, Inc., Sharon, Conn.) and an esophageal pressure cannula was inserted to measure pulmonary driving pressure (pressure). The teflon tracheal tube was attached to the opening of the plethysmograph to allow the guinea pig to breathe room air from outside the chamber. The chamber was then sealed.
Once it was determined that baseline values were within the range 0.3-0.9 mL/cm H2O for compliance and within the range 0.1-0.199 cm H2O/mL per second for resistance, the pulmonary evaluation was initiated. A Buxco pulmonary measurement computer program enabled the collection and derivation of pulmonary values. Starting this program initiated the experimental protocol and data collection. The changes in volume over time that occurred within the plethysmograph with each breath were measured via a Buxco pressure transducer. By […] this signal over time, a measurement of flow was calculated for each breath. This signal, together with the pulmonary driving pressure changes, which were collected using a Sensym pressure transducer (#TRD4100), was connected via a Buxco (MAX 2270) preamplifier to a data collection interface (#'s SFT3400 and SFT3813). All other pulmonary parameters were derived from these two inputs.
Baseline values were collected for 5 minutes, after which time the guinea pigs were challenged with Ach. […]

The target in experiment [2] is T2, human β2 adrenergic receptor (Homo sapiens, UniProt P07550).
T2 construct: expressed in transfected cells; membrane preparation
T2 sequence (P07550 whole entry): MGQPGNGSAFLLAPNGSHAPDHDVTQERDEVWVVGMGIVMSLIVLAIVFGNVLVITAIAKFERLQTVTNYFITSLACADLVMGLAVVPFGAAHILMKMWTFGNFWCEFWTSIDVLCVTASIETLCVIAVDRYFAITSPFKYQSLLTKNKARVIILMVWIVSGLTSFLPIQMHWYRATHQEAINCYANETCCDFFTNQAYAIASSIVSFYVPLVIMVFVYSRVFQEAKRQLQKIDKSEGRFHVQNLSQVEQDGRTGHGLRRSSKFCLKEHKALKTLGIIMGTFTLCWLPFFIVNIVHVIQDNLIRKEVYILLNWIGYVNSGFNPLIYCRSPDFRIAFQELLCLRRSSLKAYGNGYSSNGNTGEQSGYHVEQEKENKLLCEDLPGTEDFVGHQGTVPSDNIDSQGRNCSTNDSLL
Nature of the experiment: Radioligand binding assay (Test A). The following applies: for Ki: [3H]dihydroalprenolol displacement, HEK-293 membranes, results expressed as pKi; for Selectivity β2/β1 (binding): ratio Ki(β1)/Ki(β2). Here is the method: HEK-293 derived cell lines stably expressing cloned human β1 or β2 adrenergic receptors, respectively, were grown to near confluency in DMEM with 10% dialyzed FBS in the presence of 500 μg/mL Geneticin. The cell monolayer was lifted with Versene 1:5,000 (0.2 g/L EDTA in PBS) using a cell scraper. Cells were pelleted by centrifugation at 1,000 rpm, and cell pellets were either stored frozen at −80° C. or membranes were prepared immediately. For preparation, cell pellets were resuspended in lysis buffer (10 mM Tris/HCL pH 7.4 @ 4° C., one tablet of “Complete Protease Inhibitor Cocktail Tablets with 2 mM EDTA” per 50 mL buffer (Roche cat.# 1697498, Roche Molecular Biochemicals, Indianapolis, Ind.)) and homogenized using a tight-fitting Dounce glass homogenizer (20 strokes) on ice. The homogenate was centrifuged at 20,000×g, the pellet was washed once with lysis buffer by resuspension and centrifugation as above. The final pellet was resuspended in membrane buffer (75 mM Tris/HCl pH 7.4, […], 1 mM EDTA @ 25° C.). Protein concentration of the membrane suspension was determined by the method of Bradford (Bradford M M., Analytical Biochemistry, 1976, 72, 248-54). Membranes were stored frozen in aliquots at −80° C.
Binding assays were performed in 96-well microtiter plates in a total assay volume of 100 μL with 5 μg membrane protein for membranes containing the human β2 adrenergic receptor, or 2.5 μg membrane protein for membranes containing the human β1 adrenergic receptor in assay buffer (75 mM Tris/HCl pH 7.4 @ 25° C., 12.5 mM MgCl2, 1 mM EDTA, 0.2% BSA). […] Non-specific binding was determined in the presence of 10 μM unlabeled alprenolol. […] Filter plates were washed three times with filtration buffer (75 mM Tris/HCl pH 7.4 @ 4° C., 12.5 mM MgCl2, 1 mM EDTA) to remove unbound radioactivity. Plates were dried, 50 μL Microscint-20 liquid scintillation fluid (Packard BioScience Co., Meriden, Conn.) was added and plates were counted in a Packard Topcount liquid scintillation counter (Packard BioScience Co., Meriden, Conn.). Binding data were analyzed by nonlinear regression analysis with the GraphPad Prism Software package (GraphPad Software, Inc., San Diego, Calif.) using the 3-parameter model for one-site competition. The curve minimum was fixed to the value for nonspecific binding, as determined in the presence of 10 μM alprenolol. Ki values for compounds were calculated from observed IC50 values and the Kd value of the radioligand using the Cheng-Prusoff equation (Cheng Y, and Prusoff W H., Biochemical Pharmacology, 1973, 22, 23, 3099-108). The receptor subtype selectivity was calculated as the ratio of Ki(β1)/Ki(β2).
Binding results are expressed as the negative decadic logarithm of the Ki values, pKi. […]

Experiment [3] concerns the target T2, human β2 adrenergic receptor. Kind of experiment: Whole-cell cAMP Flashplate assay, lung epithelial cell line BEAS-2B endogenously expressing receptor (Test C). It counts as cell-based. Here is the method: For the determination of agonist potencies and efficacies (intrinsic activities) in a cell line expressing endogenous levels of β2 adrenergic receptor, a human lung epithelial cell line (BEAS-2B) was used (ATCC CRL-9609, American Type Culture Collection, Manassas, Va.) (January B, et al., British Journal of Pharmacology, 1998, 123, 4, 701-11). Cells were grown to 75-90% confluency in complete, serum-free medium (LHC-9 MEDIUM containing Epinephrine and Retinoic Acid, cat #181-500, Biosource International, Camarillo, Calif.). The day before the assay, medium was switched to LHC-8 (No epinephrine or retinoic acid, cat #141-500, Biosource International, Camarillo, Calif.). […]
On the day of the assay, cells were rinsed with PBS, lifted by scraping with 5 mM EDTA in PBS, and counted. […]
Compounds were tested in the assay at 10 different concentrations, ranging from 10 μM to […]. Maximal response was determined in the presence of 10 μM Isoproterenol. […] Plates were sealed, incubated over night at 4° C. and counted the next morning in a topcount scintillation counter (Packard BioScience Co., Meriden, Conn.). The amount of cAMP produced per mL of reaction was calculated based on the counts observed for samples and cAMP standards, as described in the manufacturer's user manual. […]

As usually defined, the EC50 is the midpoint of the concentration-response curve. Usually Ki stands for the dissociation constant of the complex between target and ligand, obtained from inhibition or displacement.

The structures appear in SMILES notation.

T1 sequence (P07550 whole entry): as above

For the molecule `O=c1ccc2c([C@@H](O)CNCCCCCCOCCc3ccccc3)ccc(O)c2[nH]1` [Comparison Compound, 8-hydroxy-5-[(R)-1-hydroxy-2-(6-phenethyloxy-hexylamino)ethyl]-1H-quinolin-2-one, reference compound], at human β2-adrenoceptor, the EC50 is 0.0501 nM, the “Selectivity β2/β1 (functional)” value is 54 and the “Selectivity β2/β3 (functional)” value is 370. Also, in experiment [1], the “Activity at 1.5 hours post dose” value is given as “Yes” and the “Activity at 72 hours post dose” value is “No”. For the same molecule, the “Activity at 72 hours post dose” value in experiment [1] (listed as comparison compound) is on record as “not active”. For the same molecule, in experiment [2], the inhibitory constant (Ki) was 0.794 nM and the “Selectivity β2/β1 (binding)” value is recorded as 76.

`O=c1ccc2c([C@@H](O)CNCCCCCCNCCc3ccccc3)ccc(O)c2[nH]1` [Compound of the Invention, 8-hydroxy-5-[(R)-1-hydroxy-2-(6-phenethylamino-hexylamino)ethyl]-1H-quinolin-2-one] showed an EC50 in experiment [3] (BEAS-2B endogenous cell line, cAMP) of 3.16 nM. The Emax in experiment [3] (BEAS-2B, Emax relative to 10 μM isoproterenol, read-out: % Efficacy) turned out to be 68%. On human β2-adrenoceptor, the EC50 is 0.316 nM, the “Selectivity β2/β1 (functional)” value is recorded as 107 and the “Selectivity β2/β3 (functional)” value is listed as 3900. For the same molecule, in experiment [1], the “Activity at 1.5 hours post dose” value was “Yes” and the “Activity at 72 hours post dose” value is “Yes”. Moreover, the “Activity at 72 hours post dose” value in experiment [1] (listed as compound of the invention) is on record as “demonstrated bronchoprotection”. For the same molecule, in experiment [2], the affinity, expressed as Ki, was 25.1 nM and the “Selectivity β2/β1 (binding)” value is on record as 18.

(Values after patent US20080039495A1, “Diamine Beta2 Adrenergic Receptor Agonists” (priority 2004, published 2008).)
